Test: Tested for inhibitory activity against Beta-glucosidase from Agrobacterium species

Structure (SMILES) | Ki
CCN(CC)c1ccc2cc(C(=O)NC[C@H]3N[C@H](CO)[C@H](O)[C@@H]3O)c(=O)oc2c1 [7-Diethylamino-2-oxo-2H-chromene-3-carboxylic acid ((R)-(3R,5S)-3,4-dihydroxy-5-hydroxymethyl-pyrrolidin-2-ylmethyl)-amide] | 1.2 nM
CCCCCCCCCCCC(=O)NC[C@H]1N[C@H](CO)[C@H](O)[C@@H]1O [Dodecanoic acid ((3S,4S,5R)-3,4-dihydroxy-5-hydroxymethyl-pyrrolidin-2-ylmethyl)-amide] | 100 nM
O=C(CCc1ccccc1)NC[C@@H]1N[C@H](CO)[C@H](O)[C@@H]1O [N-((3S,4S,5R)-3,4-Dihydroxy-5-hydroxymethyl-pyrrolidin-2-ylmethyl)-3-phenyl-propionamide] | 150 nM
O=C(NC[C@H]1N[C@H](CO)[C@H](O)[C@@H]1O)c1cccc2ccccc12 [Naphthalene-1-carboxylic acid ((3S,4S,5R)-3,4-dihydroxy-5-hydroxymethyl-pyrrolidin-2-ylmethyl)-amide] | 550 nM

Reference: BindingDB's records for doi:10.1016/s0960-894x(01)00126-3 (Technische Universität Graz, 2001)
